Assay results published in patent publication US10807992B2, “Single enantiomer antiparasitic compounds” (priority 2017, dated 2020).
Where two headings read alike, the source gives them in different places.

System: Aedes aegypti
Assay: In vitro contact activity against adult mosquitoes (coated vial)
Procedure: Aedes aegypti (Louisiana Biologicals Inc., New Orleans, La.) eggs were allowed to hatch, close, and age between 3-5 days in an environmental chamber at 26° C., 80% humidity with light/dark cycles.
For mosquito assays, an aliquot from each compound stock was added to an acetone/triton solution to achieve the desired top doses for the study. Serial dilutions were conducted from the top dose (i.e. 50 ppm) to achieve the desired titration range for EC50 and EC90 determination. The final DMSO concentration in each test vial was 0.5%. A 459 μL aliquot of each compound formulation was transferred to a vial and vials were immediately placed on an unheated roller unit to allow for an even coating of the vial walls. The vials were loosely capped and allowed to dry for a minimum of four hours in a chemical fume hood.
For both contact and ingestion assays, five female Aedes aegypti adults were added to each vial or cage. The test vials for contact assays were held in an environmental chamber at 24° C., 80% humidity with light/dark cycles (12 hours each). The cages for mosquito ingestion assays were held in a temperature-controlled artificial feeding apparatus to allow continual access to organic bovine blood containing the desired concentration of compound. Fresh aliquots of compound-spiked bovine blood were provided daily for the duration of the study.
Mosquitoes showing no movement or mosquitoes that were knocked down were noted as dead. Results from trial 1 and trial 2 contact assays are shown in Tables 12 and 13, respectively and the results from trial 3 mosquito ingestion assay is shown in table 14.
For the mosquito contact and ingestion assays, each replicate contained 5 mosquitoes. For ease of calculation, the two replicates were added to equal a total of 10 mosquitoes.

Compound: O=C(CC(F)(F)F)N1CC2(C1)OCc1cc(C3=NS[C@](c4cc(Cl)c(F)c(Cl)c4)(C(F)(F)F)C3)ccc12 [C1 (R) enantiomer, (R)-1-[6-[5-(3,5-dichloro-4-fluoro-phenyl)-5-(trifluoromethyl)-4H-isothiazol-3-yl]spiro[1H-isobenzofuran-3,3′-azetidine]-1′-yl]-3,3,3-trifluoro-propan-1-one]
- mortality at 0.049 µM (0.5 h, read-out: % Mortality R1 + R2, Trial 1, contact assay, dose 0.049 μM, 0.5 Hr): 0%
- mortality at 0.2 µM (0.5 h, read-out: % Mortality R1 + R2, Trial 1, contact assay, dose 0.20 μM, 0.5 Hr): 0%
- mortality at 0.78 µM (0.5 h, read-out: % Mortality R1 + R2, Trial 1, contact assay, dose 0.78 μM, 0.5 Hr): 0%
- mortality at 3.125 µM (0.5 h, read-out: % Mortality R1 + R2, Trial 1, contact assay, dose 3.125 μM, 0.5 Hr): 0%
- mortality at 12.5 µM (0.5 h, read-out: % Mortality R1 + R2, Trial 1, contact assay, dose 12.5 μM, 0.5 Hr): 0%
- mortality at 50 µM (0.5 h, read-out: % Mortality R1 + R2, Trial 1, contact assay, dose 50 μM, 0.5 Hr): 0%
- mortality at 0.049 µM (0.5 h, read-out: % Mortality R1 + R2, Trial 2, contact assay, dose 0.049 μM, 0.5 Hr): 0%
- mortality at 0.2 µM (0.5 h, read-out: % Mortality R1 + R2, Trial 2, contact assay, dose 0.20 μM, 0.5 Hr): 0%
- mortality at 0.78 µM (0.5 h, read-out: % Mortality R1 + R2, Trial 2, contact assay, dose 0.78 μM, 0.5 Hr): 0%
- mortality at 3.125 µM (0.5 h, read-out: % Mortality R1 + R2, Trial 2, contact assay, dose 3.125 μM, 0.5 Hr): 0%
- mortality at 12.5 µM (0.5 h, read-out: % Mortality R1 + R2, Trial 2, contact assay, dose 12.5 μM, 0.5 Hr): 0%
- mortality at 50 µM (0.5 h, read-out: % Mortality R1 + R2, Trial 2, contact assay, dose 50 μM, 0.5 Hr): 0%
- mortality at 0.049 µM (1 h, read-out: % Mortality R1 + R2, Trial 1, contact assay, dose 0.049 μM, 1 hr): 0%
- mortality at 0.2 µM (1 h, read-out: % Mortality R1 + R2, Trial 1, contact assay, dose 0.20 μM, 1 hr): 0%
- mortality at 0.78 µM (1 h, read-out: % Mortality R1 + R2, Trial 1, contact assay, dose 0.78 μM, 1 hr): 0%
- mortality at 3.125 µM (1 h, read-out: % Mortality R1 + R2, Trial 1, contact assay, dose 3.125 μM, 1 hr): 0%
- mortality at 12.5 µM (1 h, read-out: % Mortality R1 + R2, Trial 1, contact assay, dose 12.5 μM, 1 hr): 0%
- mortality at 50 µM (1 h, read-out: % Mortality R1 + R2, Trial 1, contact assay, dose 50 μM, 1 hr): 0%
- mortality at 0.049 µM (1 h, read-out: % Mortality R1 + R2, Trial 2, contact assay, dose 0.049 μM, 1 hr): 0%
- mortality at 0.2 µM (1 h, read-out: % Mortality R1 + R2, Trial 2, contact assay, dose 0.20 μM, 1 hr): 0%
- mortality at 0.78 µM (1 h, read-out: % Mortality R1 + R2, Trial 2, contact assay, dose 0.78 μM, 1 hr): 0%
- mortality at 3.125 µM (1 h, read-out: % Mortality R1 + R2, Trial 2, contact assay, dose 3.125 μM, 1 hr): 0%
- mortality at 12.5 µM (1 h, read-out: % Mortality R1 + R2, Trial 2, contact assay, dose 12.5 μM, 1 hr): 0%
- mortality at 50 µM (1 h, read-out: % Mortality R1 + R2, Trial 2, contact assay, dose 50 μM, 1 hr): 0%
- mortality at 0.049 µM (6 h, read-out: % Mortality R1 + R2, Trial 1, contact assay, dose 0.049 μM, 6 hr): 0%
- mortality at 0.2 µM (6 h, read-out: % Mortality R1 + R2, Trial 1, contact assay, dose 0.20 μM, 6 hr): 0%
- mortality at 0.78 µM (6 h, read-out: % Mortality R1 + R2, Trial 1, contact assay, dose 0.78 μM, 6 hr): 0%
- mortality at 3.125 µM (6 h, read-out: % Mortality R1 + R2, Trial 1, contact assay, dose 3.125 μM, 6 hr): 0%
- mortality at 12.5 µM (6 h, read-out: % Mortality R1 + R2, Trial 1, contact assay, dose 12.5 μM, 6 hr): 0%
- mortality at 50 µM (6 h, read-out: % Mortality R1 + R2, Trial 1, contact assay, dose 50 μM, 6 hr): 0%
- mortality at 0.049 µM (6 h, read-out: % Mortality R1 + R2, Trial 2, contact assay, dose 0.049 μM, 6 hr): 0%
- mortality at 0.2 µM (6 h, read-out: % Mortality R1 + R2, Trial 2, contact assay, dose 0.20 μM, 6 hr): 0%
- mortality at 0.78 µM (6 h, read-out: % Mortality R1 + R2, Trial 2, contact assay, dose 0.78 μM, 6 hr): 0%
- mortality at 3.125 µM (6 h, read-out: % Mortality R1 + R2, Trial 2, contact assay, dose 3.125 μM, 6 hr): 0%
- mortality at 12.5 µM (6 h, read-out: % Mortality R1 + R2, Trial 2, contact assay, dose 12.5 μM, 6 hr): 0%
- mortality at 50 µM (6 h, read-out: % Mortality R1 + R2, Trial 2, contact assay, dose 50 μM, 6 hr): 0%
- mortality at 0.049 µM (12 h, read-out: % Mortality R1 + R2, Trial 1, contact assay, dose 0.049 μM, 12 hr): 0%
- mortality at 0.2 µM (12 h, read-out: % Mortality R1 + R2, Trial 1, contact assay, dose 0.20 μM, 12 hr): 0%
- mortality at 0.78 µM (12 h, read-out: % Mortality R1 + R2, Trial 1, contact assay, dose 0.78 μM, 12 hr): 0%
- mortality at 3.125 µM (12 h, read-out: % Mortality R1 + R2, Trial 1, contact assay, dose 3.125 μM, 12 hr): 0%
- mortality at 12.5 µM (12 h, read-out: % Mortality R1 + R2, Trial 1, contact assay, dose 12.5 μM, 12 hr): 0%
- mortality at 50 µM (12 h, read-out: % Mortality R1 + R2, Trial 1, contact assay, dose 50 μM, 12 hr): 30%
- mortality at 0.049 µM (12 h, read-out: % Mortality R1 + R2, Trial 2, contact assay, dose 0.049 μM, 12 hr): 0%
- mortality at 0.2 µM (12 h, read-out: % Mortality R1 + R2, Trial 2, contact assay, dose 0.20 μM, 12 hr): 10%
- mortality at 0.78 µM (12 h, read-out: % Mortality R1 + R2, Trial 2, contact assay, dose 0.78 μM, 12 hr): 10%
- mortality at 3.125 µM (12 h, read-out: % Mortality R1 + R2, Trial 2, contact assay, dose 3.125 μM, 12 hr): 0%
- mortality at 12.5 µM (12 h, read-out: % Mortality R1 + R2, Trial 2, contact assay, dose 12.5 μM, 12 hr): 0%
- mortality at 50 µM (12 h, read-out: % Mortality R1 + R2, Trial 2, contact assay, dose 50 μM, 12 hr): 20%
- mortality at 0.049 µM (24 h, read-out: % Mortality R1 + R2, Trial 1, contact assay, dose 0.049 μM, 24 hr): 0%
- mortality at 0.2 µM (24 h, read-out: % Mortality R1 + R2, Trial 1, contact assay, dose 0.20 μM, 24 hr): 0%
- mortality at 0.78 µM (24 h, read-out: % Mortality R1 + R2, Trial 1, contact assay, dose 0.78 μM, 24 hr): 0%
- mortality at 3.125 µM (24 h, read-out: % Mortality R1 + R2, Trial 1, contact assay, dose 3.125 μM, 24 hr): 0%
- mortality at 12.5 µM (24 h, read-out: % Mortality R1 + R2, Trial 1, contact assay, dose 12.5 μM, 24 hr): 0%
- mortality at 50 µM (24 h, read-out: % Mortality R1 + R2, Trial 1, contact assay, dose 50 μM, 24 hr): 100%
- mortality at 0.049 µM (24 h, read-out: % Mortality R1 + R2, Trial 2, contact assay, dose 0.049 μM, 24 hr): 0%
- mortality at 0.2 µM (24 h, read-out: % Mortality R1 + R2, Trial 2, contact assay, dose 0.20 μM, 24 hr): 0%
- mortality at 0.78 µM (24 h, read-out: % Mortality R1 + R2, Trial 2, contact assay, dose 0.78 μM, 24 hr): 10%
- mortality at 3.125 µM (24 h, read-out: % Mortality R1 + R2, Trial 2, contact assay, dose 3.125 μM, 24 hr): 10%
- mortality at 12.5 µM (24 h, read-out: % Mortality R1 + R2, Trial 2, contact assay, dose 12.5 μM, 24 hr): 60%
- mortality at 50 µM (24 h, read-out: % Mortality R1 + R2, Trial 2, contact assay, dose 50 μM, 24 hr): 100%
- mortality at 0.049 µM (48 h, read-out: % Mortality R1 + R2, Trial 1, contact assay, dose 0.049 μM, 48 hr): 10%
- mortality at 0.2 µM (48 h, read-out: % Mortality R1 + R2, Trial 1, contact assay, dose 0.20 μM, 48 hr): 40%
- mortality at 0.78 µM (48 h, read-out: % Mortality R1 + R2, Trial 1, contact assay, dose 0.78 μM, 48 hr): 20%
- mortality at 3.125 µM (48 h, read-out: % Mortality R1 + R2, Trial 1, contact assay, dose 3.125 μM, 48 hr): 30%
- mortality at 12.5 µM (48 h, read-out: % Mortality R1 + R2, Trial 1, contact assay, dose 12.5 μM, 48 hr): 50%
- mortality at 50 µM (48 h, read-out: % Mortality R1 + R2, Trial 1, contact assay, dose 50 μM, 48 hr): 100%
- mortality at 0.049 µM (48 h, read-out: % Mortality R1 + R2, Trial 2, contact assay, dose 0.049 μM, 48 hr): 20%
- mortality at 0.2 µM (48 h, read-out: % Mortality R1 + R2, Trial 2, contact assay, dose 0.20 μM, 48 hr): 60%
- mortality at 0.78 µM (48 h, read-out: % Mortality R1 + R2, Trial 2, contact assay, dose 0.78 μM, 48 hr): 10%
- mortality at 3.125 µM (48 h, read-out: % Mortality R1 + R2, Trial 2, contact assay, dose 3.125 μM, 48 hr): 20%
- mortality at 12.5 µM (48 h, read-out: % Mortality R1 + R2, Trial 2, contact assay, dose 12.5 μM, 48 hr): 100%
- mortality at 50 µM (48 h, read-out: % Mortality R1 + R2, Trial 2, contact assay, dose 50 μM, 48 hr): 100%
